Laboratory results as given in patent US6602982B1, “Process for the preparation of regular glycopeptides” (Hokkaido Electric Power Company, Incorporated, priority 1998, dated 2003).

Method: Aqueous solutions of the polymer of Example 5 having various concentrations were prepared, and the freezing point thereof was measured. The freezing point depression was measured with a light microscope with a temperature controller. Firstly, in order to remove any error in the measurement of freezing point due to supercooling, the whole system was previously frozen at −20° C., and then was carefully returned to 0° C. with attention not to dissolve completely the ice nucleus. Then, the system is gradually cooled with observing growth of ice crystal. The freezing point was deemed to be a point at which the growth of ice crystal was stopped and the whole system was frozen.

Olymer of L-Alanine-(β-D-galactopyranosyl)-(1→3)-(2-acetamido-2-deoxy-1-α-D-galactopyranosyl)-L-threonine-L-alanine [Example 5]
growth of ice crystal (aqueous solution, gradual cooling while observing ice crystal growth): inhibited the growth of ice crystal | freezing point depression activity (aqueous solutions of various concentrations, compared with literature data for natural origin AFGP, FIG. 1): almost the same freezing point depression activity as that of the natural origin AFGP
